In patent US10053458B2, “Pyrimidine-2,4-diamine derivative and anticancer pharmaceutical composition comprising same as effective ingredient” (KOREA RESEARCH INSTITUTE OF CHEMICAL TECHNOLOGY, priority 2014, dated 2018):

What was measured:
BaF3 EML4-ALK WT cells = experiment: Cytotoxicity on BaF3 cell transfected with EML4-ALK WT (WST-1); settings: Ba/F3 EML4-ALK, 72 h, read-out: BaF3 EML4-ALK WT, IC50 of the cytotoxicity
H3122 = experiment: Cancer cell proliferation inhibition (SRB/MTS), H3122; settings: Homo sapiens, NCI-H3122, 72 h, read-out: H3122 GI50
Procedure: (§1) Cancer cell lines used in the experiments were all human-derived cancer cell lines, specifically H2228 and H3122, which are non-small cell lung cancer cell lines.
(§2) The cancer cell proliferation inhibition was measured using the MTS assay as follows. […] Each culture medium was placed in an incubator for 4 hours, taken out and left at room temperature for 10 minutes.

H2228 = experiment: Cancer cell proliferation inhibition (SRB/MTS), H2228; settings: Homo sapiens, NCI-H2228, 72 h, read-out: H2228 GI50
Procedure: as §1, §2

Row | Structure (SMILES) | IC50 (BaF3 EML4-ALK WT cells) | GI50 (H3122) | GI50 (H2228)
1 | CCC1(CC)NCCc2cc(Nc3ncc(Cl)c(Nc4ccccc4S(=O)(=O)C(C)C)n3)c(OC)cc21 [Example 74, 5-chloro-N4-(2-(isopropylsulfonyl)phenyl)-N2-(1,1-diethyl-7-methoxy-1,2,3,4-tetrahydroisoquinolin-6-yl)pyrimidine-2,4-diamine] | < 50 nM | < 50 nM | < 50 nM
2 | CCN1Cc2cc(Nc3ncc(Cl)c(Nc4ccccc4S(=O)(=O)C(C)C)n3)c(OC(C)C)cc2C(C)(C)C1 [Example 82, 5-chloro-N4-(2-(isopropylsulfonyl)phenyl)-N2-(2-ethyl-6-isopropoxy-4,4-dimethyl-1,2,3,4-tetrahydroisoquinolin-7-yl)pyrimidine-2,4-diamine] | < 50 nM | < 50 nM | < 50 nM
3 | CCN1Cc2cc(Nc3ncc(Cl)c(Nc4ccccc4S(=O)(=O)C(C)C)n3)c(OC)cc2C(C)(C)C1 [Example 92, 5-chloro-N4-(2-(isopropylsulfonyl)phenyl)-N2-(2-ethyl-6-methoxy-4,4-trimethyl-1,2,3,4-tetrahydroisoquinolin-7-yl)pyrimidine-2,4-diamine] | < 50 nM | < 50 nM | < 50 nM
4 | COc1cc2c(cc1Nc1ncc(Cl)c(Nc3ccccc3S(=O)(=O)C(C)C)n1)CCNC2C(C)C (stereo not drawn) [Example 28] | 13 nM | 21 nM | < 50 nM
5 | CC(C)S(=O)(=O)c1ccccc1Nc1nc(Nc2cc3c(cc2OC(F)F)C(C)(C)NCC3)ncc1Cl [Example 100, 5-chloro-N4-(2-(isopropylsulfonyl)phenyl)-N2-(7-difluoromethoxy-1,1-dimethyl-1,2,3,4-tetrahydroisoquinolin-6-yl)pyrimidine-2,4-diamine] | < 50 nM | < 50 nM | < 50 nM
6 | COc1cc2c(cc1Nc1ncc(Cl)c(Nc3ccccc3S(=O)(=O)C(C)C)n1)C(C)(C)NCC2 [Example 72, 5-chloro-N4-(2-(isopropylsulfonyl)phenyl)-N2-(6-methoxy-1,1-dimethyl-1,2,3,4-tetrahydroisoquinolin-7-yl)pyrimidine-2,4-diamine] | < 50 nM | < 50 nM | < 50 nM
7 | COc1cc2c(cc1Nc1ncc(Cl)c(Nc3ccccc3S(=O)(=O)C(C)C)n1)CCNC2C(F)(F)F (stereo not drawn) [Example 26] | < 50 nM | < 50 nM | < 50 nM
8 | CC(C)Oc1cc2c(cc1Nc1ncc(Cl)c(Nc3ccccc3S(=O)(=O)C(C)C)n1)CNCC2(C)C [Example 80, 5-chloro-N4-(2-(isopropylsulfonyl)phenyl)-N2-(6-isopropoxy-4,4-dimethyl-1,2,3,4-tetrahydroisoquinolin-7-yl)pyrimidine-2,4-diamine] | < 50 nM | < 50 nM | < 50 nM
9 | COc1cc2c(cc1Nc1ncc(Cl)c(Nc3ccccc3S(=O)(=O)C(C)C)n1)C1CNCC(=O)N1CC2(C)C (stereo not drawn) [Example 85] | < 50 nM | < 50 nM | < 50 nM
10 | CC(C)COc1cc2c(cc1Nc1ncc(Cl)c(Nc3ccccc3S(=O)(=O)C(C)C)n1)CCN(C(=O)C(F)(F)F)C2 [Example 19, 1-(6-(5-chloro-4-(2-(isopropylsulfonyl)phenylamino)pyrimidin-2-yl)amino-7-isobutoxy-3,4-dihydroisoquinolin-2(1H)-yl)-2,2,2-trifluoroethane-1-one] | < 50 nM | < 50 nM | < 50 nM
11 | COc1cc2c(cc1Nc1ncc(Cl)c(Nc3ccccc3S(=O)(=O)C(C)C)n1)C1(CCCCC1)CNC2 [Example 16, 5-chloro-N4-(2-(isopropylsulfonyl)phenyl)-N2-(7-methoxy-2,3-dihydro-1H-spiro[cyclohexane-1,4-isoquinoline]-6-yl)pyrimidine-2,4-diamine] | < 50 nM | < 50 nM | < 50 nM
12 | COc1cc2c(cc1Nc1ncc(Cl)c(Nc3ccccc3S(=O)(=O)C(C)C)n1)CC1(CC1)N(C(=O)C(F)(F)F)C2C (stereo not drawn) [Example 29] | < 50 nM | < 50 nM | < 50 nM
13 | COc1cc2c(cc1Nc1ncc(Cl)c(Nc3ccccc3S(=O)(=O)C(C)C)n1)C1(CCCC1)CN(C(=O)C(F)(F)F)C2 [Example 13, 1-(6-(5-chloro-4-(2-(isopropylsulfonyl)phenylamino)pyrimidin-2-yl)amino-7-methoxy-1H-spiro[cyclopentane-1,4-isoquinoline]-2(3H)-yl)-2,2,2-trifluoroethane-1-one] | < 50 nM | < 50 nM | < 50 nM
14 | COc1cc2c(cc1Nc1ncc(Cl)c(Nc3ccccc3S(=O)(=O)C(C)C)n1)C(C)(C)CN(C(=O)C(F)(F)F)C2 [Example 11, 1-(6-(5-chloro-4-(2-(isopropylsulfonyl)phenylamino)pyrimidin-2-yl)amino-7-methoxy-4,4-dimethyl-3,4-dihydroisoquinolin-2(1H)-yl)-2,2,2-trifluoroethane-1-one] | < 50 nM | < 50 nM | < 50 nM
15 | COc1cc2c(cc1Nc1ncc(Cl)c(Nc3ccccc3S(=O)(=O)C(C)C)n1)CNCC21CCCC1 [Example 83, 5-chloro-N4-(2-(isopropylsulfonyl)phenyl)-N2-(6-methoxy-2,3-dihydro-1H-spiro(cyclopentane-1,4-isoquinolin)-7-yl)pyrimidine-2,4-diamine] | < 50 nM | < 50 nM | < 50 nM
16 | COc1cc2c(cc1Nc1ncc(Cl)c(Nc3ccccc3S(=O)(=O)C(C)C)n1)C1CNCCN1CC2(C)C (stereo not drawn) [Example 86, 5-chloro-N4-(2-(isopropylsulfonyl)phenyl)-N2-(9-methoxy-7,7-dimethyl-1,3,4,6,7,11b-hexahydro-2H-pyrazino[2,1-a]isoquinolin-10-yl)pyrimidine-2,4-diamine] | < 50 nM | < 50 nM | < 50 nM
17 | CCN1CCc2cc(Nc3ncc(Cl)c(Nc4ccccc4S(=O)(=O)C(C)C)n3)c(OC(C)C)cc2C1(C)C [Example 79, 5-chloro-N4-(2-(isopropylsulfonyl)phenyl)-N2-(2-ethyl-7-isopropoxy-1,1-dimethyl-1,2,3,4-tetrahydroisoquinolin-6-yl)pyrimidine-2,4-diamine] | < 50 nM | < 50 nM | < 50 nM
18 | COc1cc2c(cc1Nc1ncc(Cl)c(Nc3ccccc3S(=O)(=O)C(C)C)n1)CCNC2C(=O)O (stereo not drawn) [Example 76, 6-(5-chloro-4-(2-(isopropylsulfonyl)phenylamino)pyrimidin-2-yl)amino-7-methoxy-1,2,3,4-dihydroisoquinoline-1-carboxylic acid] | < 50 nM | < 50 nM | < 50 nM
19 | CCN1CCc2cc(Nc3ncc(Cl)c(Nc4ccccc4S(=O)(=O)C(C)C)n3)c(OC)cc2C1(C)C [Example 77, 5-chloro-N4-(2-(isopropylsulfonyl)phenyl)-N2-(2-ethyl-7-methoxy-1,1-dimethyl-1,2,3,4-tetrahydroisoquinolin-6-yl)pyrimidine-2,4-diamine] | < 50 nM | < 50 nM | < 50 nM
20 | COc1cc2c(cc1Nc1ncc(Cl)c(Nc3ccccc3S(=O)(=O)C(C)C)n1)CNC2 [Example 1, 5-chloro-N4-(2-(isopropylsulfonyl)phenyl)-N2-(6-methoxyisoindolin-5-yl)pyrimidine-2,4-diamine] | < 50 nM | < 50 nM | 15 nM
21 | COc1cc2c(cc1Nc1ncc(Cl)c(Nc3ccccc3S(=O)(=O)C(C)C)n1)C(=O)NCC2 [Example 44] | < 50 nM | < 50 nM | < 50 nM
22 | COc1cc2c(c(Br)c1Nc1ncc(Cl)c(Nc3ccccc3S(=O)(=O)C(C)C)n1)CCNC2(C)C [Example 87, 5-chloro-N4-(2-(isopropylsulfonyl)phenyl)-N2-(5-bromo-7-methoxy-1,1-dimethyl-1,2,3,4-tetrahydroisoquinolin-6-yl)pyrimidine-2,4-diamine] | < 50 nM | < 50 nM | < 50 nM
23 | CCCC1NCCc2cc(Nc3ncc(Cl)c(Nc4ccccc4S(=O)(=O)C(C)C)n3)c(OC)cc21 (stereo not drawn) [Example 102, 5-chloro-N4-(2-(isopropylsulfonyl)phenyl)-N2-(7-methoxy-1-propyl-1,2,3,4-tetrahydroisoquinolin-6-yl)pyrimidine-2,4-diamine] | < 50 nM | < 50 nM | < 50 nM
24 | COc1cc2c(cc1Nc1ncc(Cl)c(Nc3ccccc3S(=O)(=O)C(C)C)n1)C1(CCCCC1)CN(C(=O)C(F)(F)F)C2 [Example 15, 1-(6-(5-chloro-4-(2-(isopropylsulfonyl)phenylamino)pyrimidin-2-yl)amino-7-methoxy-1H-spiro[cyclohexane-1,4-isoquinoline]-2(3H)-yl)-2,2,2-trifluoroethane-1-one] | < 50 nM | < 50 nM | < 50 nM
25 | COc1cc2c(cc1Nc1ncc(Cl)c(Nc3ccccc3S(=O)(=O)C(C)C)n1)CCN(C1CCNCC1)C2 [Example 24] | < 50 nM | < 50 nM | < 50 nM
26 | COc1cc2c(cc1Nc1ncc(Cl)c(Nc3ccccc3S(=O)(=O)C(C)C)n1)CN(C(=O)CO)CC2(C)C [Example 95] | < 50 nM | < 50 nM | < 50 nM
27 | COc1cc2c(c(Cl)c1Nc1ncc(Cl)c(Nc3ccccc3S(=O)(=O)C(C)C)n1)CCNC2(C)C [Example 88, 5-chloro-N4-(2-(isopropylsulfonyl)phenyl)-N2-(5-chloro-7-methoxy-1,1-dimethyl-1,2,3,4-tetrahydroisoquinolin-6-yl)pyrimidine-2,4-diamine] | < 50 nM | < 50 nM | < 50 nM
28 | COc1cc2c(cc1Nc1ncc(Cl)c(Nc3ccccc3S(=O)(=O)C(C)C)n1)CCN(C(=O)C(F)(F)F)C2(C)C [Example 32, 1-(6-(5-chloro-4-(2-(isopropylsulfonyl)phenylamino)pyrimidin-2-yl)amino-7-methoxy-1,1-dimethyl-3,4-dihydroisoquinolin-2(1H)-yl)-2,2,2-trifluoroethane-1-one] | < 50 nM | < 50 nM | < 50 nM
